Bounds are passed on as bounds.

One assay addresses VEGFR-2 (Homo sapiens, UniProt P35968). Put plainly: VEGFR-2 inhibition rate test (kinase assay kit, colorimetric ELISA). The note with it: concentration not given. In general terms: An ELISA detects its analyte on a solid surface through an enzyme-linked reagent.
Another assay concerns Rat aortic ring. Put plainly: Rat Aortic Ring Assay. It is filed as cell-based. The conditions noted are these: for Rat Aortic Ring Assay (10 ug/ml), result in words: observed on the sixth day; for inhibition at 10 µg/mL: Rattus norvegicus, 10 ug/ml, compared with blank control, sixth day. The text has this:
Rat Aortic Ring Assay • 1) 6 week old SD […] (Sprague Dawley) were selected for the experiments. Cleaned abdominal skin with 75% ethanol to disinfect, and then anesthetized the mice with ether, • 2) Carefully removed the abdominal aortas and transferred the aortas to normal saline. Excessive vascular tissues were carefully removed with scissors. • 3) The aortas were rinsed with normal saline until no blood stain remained. • 4) Sectioned the aortas into one millimeter depth arterial slices with ophthalmological scissors. • 5) Add 50 μL pre-thawed Matrigel to each well of the pre-cooled 96 well cell culture plates, and embedded the ring-shaped mouse aortas in collagen gel. • 6) Incubated for 60 minutes at 37° C. to solidificate the gel. • 7) Added DMEM culture solution containing 10% FBS, along with different concentrations of the selected compounds into the wells and cultured in the incubator. Every compound was repeated in no less than 3 wells. • 8) Replaced with the fresh medium and changed the medicine once on the third day. • 9) Took out the pates on the sixth day, and observed the vascular growth with Microscope (OLYMPUS, DP70, Japan) and took photographs(×100). Randomly chose 3 arterial rings to photograph and calculated the area covered by micro-vascular with Image Pro Plus software. The inhibition rate is calculated as:
[formula] • Evaluation criteria: ⋆inhibition rate[…]; ⋆⋆inhibition rate 60-90%; ⋆⋆⋆inhibition rate>90%.

The test system of assay [1] is Microvascular Endothelial Cells (MVEC). Put plainly: MTT growth inhibition of MVEC. The note with it: Endothelial cell, 96 h, 4 days culture with drug, read-out: IG50 on inhibiting growth of MVEC. It is filed as cell-based. The protocol:
In Vitro Anti-Tumor Activity Test
Put cell suspension into centrifugal tubes with a pipette under sterile conditions, then the cell suspension was centrifuged for 3 minutes at 1300 rpm. Discarded the supernatant lightly and added fresh culture medium. Mixed the cells by pipetting, then transferred the cells into culture flasks, and put them into the CO2 incubator. Changed the culture medium once after 24 hours.
Human prostate cancer cells (DU145, PC-3) were cultured in a medium containing RPMI1640 basic medium supplemented with 10% heat-inactivated FBS, 100 IU/mL penicillin, 100 μg/mL streptomycin and 1 mmol/L L-glutamine. Human breast carcinoma cells (T47D, MDA-MB231) were cultured in a medium containing RPM11640 basic medium supplemented with 10% heat-inactivated FBS, 5 μg/mL insulin, 100 IU/mL penicillin, 100 μg/mL streptomycin and 1 mmol/L L-glutamine. Human breast carcinoma cells (MCF-7) were cultured in a medium containing DMEM basic medium supplemented with 10% heat-inactivated FBS, 5 μg/mL insulin, 100 IU/mL penicillin, 100 μg/mL streptomycin and […]. Murine Lewis lung cancer cells (LL/2), murine melanoma cells (B16FD) and Microvascular Endothelial Cells (MVEC) were cultured in a medium containing DMEM basic medium supplemented with 10% heat-inactivated FBS, 4.5 g/L glucose, 1.5 g/L NaHCO3, 100 IU/mL penicillin, 100 μg/mL streptomycin and 4 mmol/L L-glutamine. All these cell lines were incubated at 37° C. biochemical incubator with 5% CO2 saturated humidity.
After resuscitation, the cells were passed for 2-3 generations till they became stable, then they were used for the experiments. Each passage was based on the standard that all cells were spread over the bottoms of culture flasks.
Cells were digested off from the bottoms of culture flasks with trypsin (0.25%). The cell dissociation buffer was transferred into centrifuge tubes, added medium to stop the digestion, and centrifuged for 3 minutes at 1300 rpm. Discarded the supernatant lightly and added fresh culture medium (5 mL). Mixed the cells by pipetting, then added 10 μL of the cell suspension into the cell counting plate, and adjusted the cell concentration to 2×10^4 cells/mL. Added 100 μL of the cell suspension to all wells on the 96 well plates, except A1 well as the blank control. Put the plates into the biochemical incubator for 24 hours and to make sure the cells grew along the walls.
The drugs were dissolved in 80 mmol/L DMSO first, and then diluted the drugs with ethanol to 8 mmol/L. The solution was further diluted with the culture medium to different concentrations as 160 μmol/L, 120 μmol/L, 80 μmol/L, 40 μmol/L, 20 μmol/L and 10 μmol/L. Added 100 μL of the drug solution to each well on the 96 well plates. Therefore, the final concentrations of the drugs that were added to the cells were 80 μmol/L, 40 μmol/L, 20 μmol/L, 10 μmol/L and 5 μmol/L, and each concentration were repeated in three parallel wells. Put the culture plates into the biochemical incubator to culture continuously for 4 days.
Added 50 μL MTT liquids (2 mg/mL) into each well, put the culture plates into the biochemical incubator for 4 h, discarded MTT liquids (TCC), added 200 μL DMSO, then oscillated for 10 minutes on the magnetic oscillator to make sure that the survived cells and the reaction product of MTT were fully dissolved. Detected and recorded the absorbance (OD) values of each well at the wavelength of 570 nm using the microplate reader. The OD values of cells without tested drugs were used as control. The cell growth inhibition rates under each drug concentration were calculated by the following formula. […] Inhibition rate of growth(%)=(1−The absorbance(OD)of cells with tested drugs/The absorbance(OD)of the blank control group)×100%
The absorbance (OD) of cells with tested drugs: OD value is measured with the test drugs.
The absorbance (OD) of the blank control group: OD value is measured without the test drugs. […]

VEGFR-2, sequence (P35968 20-1356): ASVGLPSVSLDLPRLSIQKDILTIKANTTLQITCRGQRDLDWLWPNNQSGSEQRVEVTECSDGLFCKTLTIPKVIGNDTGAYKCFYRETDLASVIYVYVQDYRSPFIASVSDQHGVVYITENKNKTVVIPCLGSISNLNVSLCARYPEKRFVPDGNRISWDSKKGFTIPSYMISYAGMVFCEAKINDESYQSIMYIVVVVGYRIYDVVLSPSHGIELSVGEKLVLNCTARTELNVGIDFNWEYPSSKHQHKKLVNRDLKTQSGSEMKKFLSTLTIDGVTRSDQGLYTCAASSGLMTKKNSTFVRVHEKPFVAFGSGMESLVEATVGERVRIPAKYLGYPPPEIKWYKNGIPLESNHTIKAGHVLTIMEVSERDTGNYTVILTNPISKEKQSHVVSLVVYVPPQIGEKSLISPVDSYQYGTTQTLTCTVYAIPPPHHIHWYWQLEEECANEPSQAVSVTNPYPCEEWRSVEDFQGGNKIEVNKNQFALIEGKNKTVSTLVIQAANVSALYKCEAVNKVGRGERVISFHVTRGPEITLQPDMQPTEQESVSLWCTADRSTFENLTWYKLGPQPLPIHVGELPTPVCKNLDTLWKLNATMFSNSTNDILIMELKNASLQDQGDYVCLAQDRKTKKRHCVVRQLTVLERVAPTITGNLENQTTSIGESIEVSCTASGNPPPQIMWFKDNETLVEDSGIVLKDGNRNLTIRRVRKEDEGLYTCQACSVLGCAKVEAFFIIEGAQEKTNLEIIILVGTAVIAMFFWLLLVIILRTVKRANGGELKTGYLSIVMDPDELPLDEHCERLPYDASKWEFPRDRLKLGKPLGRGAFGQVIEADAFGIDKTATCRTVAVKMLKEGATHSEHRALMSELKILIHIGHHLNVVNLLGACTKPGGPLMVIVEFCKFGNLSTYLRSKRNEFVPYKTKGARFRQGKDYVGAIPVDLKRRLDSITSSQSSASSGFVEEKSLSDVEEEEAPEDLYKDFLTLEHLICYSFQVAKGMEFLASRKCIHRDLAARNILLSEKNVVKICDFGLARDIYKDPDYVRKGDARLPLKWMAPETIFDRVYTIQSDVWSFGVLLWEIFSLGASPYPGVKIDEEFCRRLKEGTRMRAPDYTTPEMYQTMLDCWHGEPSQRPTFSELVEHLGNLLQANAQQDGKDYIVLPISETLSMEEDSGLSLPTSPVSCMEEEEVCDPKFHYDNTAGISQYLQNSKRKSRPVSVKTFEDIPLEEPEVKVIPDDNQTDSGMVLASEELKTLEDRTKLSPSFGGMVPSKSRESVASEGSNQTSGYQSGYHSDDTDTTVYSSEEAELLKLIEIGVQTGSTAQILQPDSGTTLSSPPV

Consider `Clc1ccc2nnnc(Nc3ccccc3)c2n1` [Example 78, 6-chloro-4-anilino-pyrido[3,2-d][1,2,3]triazine], for which, on VEGFR-2, the “Kinase inhibition rate (VEGFR-2)” value is 15.87. Besides, the “Rat Aortic Ring Assay (10 ug/ml), result in words” value (from here on “Rat Aortic Ring Assay (10 ug/ml)”) in the assay with Rat aortic ring was “No significant inhibition in the previous 3 days, but vascular ring”. In addition, the IC50 in assay [1] came out at 10.7 µM. For the compound `CCCCCOc1cc2nnnc(Nc3ccc(F)c(C(F)(F)F)c3)c2cc1OC` [Example 56, 6-methoxy-7-pentyloxy-4-(3-trifluoromethyl-4-fluoroanilino)-benzo[d][1,2,3]triazine], the “Kinase inhibition rate (VEGFR-2)” value at VEGFR-2 is recorded as −3.74. For the same compound, the IC50 in assay [1] was determined as 16.3 µM. The term inhibition denotes the share of the control response that was lost under treatment. A higher inhibition goes with a response far below the control. For `Clc1ccc2nnnc(Nc3ccc(Cl)c(Cl)c3)c2n1` [Example 82, 6-chloro-4-(3,4-dichloroanilino)pyrido[3,2-d][1,2,3]triazine], in the assay with Rat aortic ring, the inhibition at 10 µg/mL is more than 80%. In addition, the IC50 in assay [1] was determined as 9.19 µM. As for `COc1cc2c(Nc3ccc(C)cc3)nnnc2cc1OCCCCl` [Example 77, 6-methoxy-7-chloropropoxy-4-(4-methylanilino)-benzo[d][1,2,3]triazine], the “Rat Aortic Ring Assay (10 ug/ml)” value in the assay with Rat aortic ring was “Micro-vascular growth was significantly inhibited, affecting cell”. Moreover, the IC50 in assay [1] is 17.1 µM. As for `Clc1ccc(Nc2nnnc3ncc(Cl)cc23)cc1` [Example 83, 6-chloro-4-(4-chloroanilino)pyrido[3,2][1,2,3]triazine], the “Kinase inhibition rate (VEGFR-2)” value at VEGFR-2 is listed as 23.56. Besides, in the assay on Rat aortic ring, the “Rat Aortic Ring Assay (10 ug/ml)” value was “No significant inhibition”. For the same compound, the IC50 in assay [1] was 10.5 µM. Consider `Fc1cc(Nc2nnnc3ccc(Cl)nc23)ccc1Br` [Example 79, 6-chloro-4-(3-fluoro-4-bromoanilino)-pyrido[3,2-d][1,2,3]-triazine], for which the “Rat Aortic Ring Assay (10 ug/ml)” value in the assay with Rat aortic ring is reported as “Almost complete inhibition (10 μg/mL), vascular ring was dead”. Also, in assay [1], the IC50 stood at 9.56 µM. In the assay with Rat aortic ring, `CCCCOc1cc2nnnc(Nc3ccc(Cl)c(Cl)c3)c2cc1OC` [Example 15, 6-methoxy-7-n-butoxy-4-(3,4-dichloroanilino)-benzo[d][1,2,3]triazine] gave an inhibition at 10 µg/mL of approximately 30%. The IC50 in assay [1] was determined as 15.5 µM. Turning to `COc1cc2c(Nc3ccc(Cl)c(Cl)c3)nnnc2cc1OCCCCl` [Example 65, 6-methoxy-7-chloropropoxy-4-(3,4-dichloroanilino)-benzo[d][1,2,3]triazine], the IC50 in assay [1] was 11 µM. In the case of `FC(F)(F)Oc1ccc(Nc2nnnc3ccc(Cl)nc23)cc1` [Example 87, 6-chloro-4-(4-trifluoromethoxyanilino)pyrido[3,2-d][1,2,3]triazine], the “Rat Aortic Ring Assay (10 ug/ml)” value in the assay with Rat aortic ring is “Almost complete inhibition (10 μg/mL), vascular ring was dead”. In assay [1], the IC50 was 11.5 µM. With `CCOc1cc2nnnc(Nc3ccc(Cl)cc3)c2cc1OC` [Example 33, 6-methoxy-7-ethoxy-4-(4-chloroanilino)-benzo[d][1,2,3]triazine], the IC50 in assay [1] amounted to 26.5 µM. As for `COc1cc2c(Nc3cc(Cl)cc(Cl)c3)nnnc2cc1OCCCCl` [Example 63, 6-methoxy-7-chloropropoxy-4-(3,5-dichloroanilino)-benzo[d][1,2,3]triazine], on VEGFR-2, the “Kinase inhibition rate (VEGFR-2)” value is reported as −9.97. The IC50 in assay [1] was 28.8 µM. With `COc1cc2c(Nc3ccc(F)c(C(F)(F)F)c3)nnnc2cc1OCCCCl` [Example 73, 6-methoxy-7-chloropropoxy-4-(3-trifluoromethyl-4-fluoroanilino)-benzo[d][1,2,3]triazine], the “Kinase inhibition rate (VEGFR-2)” value at VEGFR-2 worked out at 2.40. In addition, the IC50 in assay [1] amounted to 15.2 µM.

Consider `COc1cc2c(Nc3ccc(Cl)cc3)nnnc2cc1OCCCCl` [Example 66, 6-methoxy-7-chloropropoxy-4-(4-chloroanilino)-benzo[d][1,2,3]triazine], for which, on VEGFR-2, the “Kinase inhibition rate (VEGFR-2)” value is −10.15. Also, in assay [1], the IC50 amounted to 38.6 µM. `CCOc1cc2nnnc(Nc3ccc(Cl)c(Cl)c3)c2cc1OC` [Example 32, 6-methoxy-7-ethoxy-4-(3,4-dichloroanilino)-benzo[d][1,2,3]triazine]: the IC50 in assay [1] worked out at 14.3 µM.

`CCCCOc1cc2nnnc(Nc3cccc(Br)c3)c2cc1OC` [Example 25, 6-methoxy-7-n-butoxy-4-(3-bromoanilino)-benzo[d][1,2,3]triazine]: the “Kinase inhibition rate (VEGFR-2)” value on VEGFR-2 came to 5.61. Also, the IC50 in assay [1] was determined as 16.8 µM.

Turning to `Fc1ccc(Nc2nnnc3ccc(Cl)nc23)cc1Cl` [Example 89, 6-chloro-4-(3-chloro-4-fluoroanilino)pyrido[3,2-d][1,2,3]triazine], the “Kinase inhibition rate (VEGFR-2)” value on VEGFR-2 is reported as −0.25. Also, in assay [1], the IC50 is 9.85 µM.

With `Clc1cc(Cl)cc(Nc2nnnc3ccc(Cl)nc23)c1` [Example 80, 6-chloro-4-(3,5-dichloroanilino)pyrido[3,2-d][1,2,3]triazine], the “Rat Aortic Ring Assay (10 ug/ml)” value in the assay with Rat aortic ring is on record as “Almost complete inhibition (10 μg/mL), vascular ring was dead”. Also, the IC50 in assay [1] was found to be 7.93 µM. As to `FC(F)(F)c1ccc(Nc2nnnc3ccc(Cl)nc23)cc1` [Example 85, 6-chloro-4-(4-trifluoromethylanilino)pyrido[3,2-d][1,2,3]triazine], the “Rat Aortic Ring Assay (10 ug/ml)” value with Rat aortic ring was “No significant inhibition”. Further, the IC50 in assay [1] was 8.06 µM. Take `CCCCCOc1cc2nnnc(Nc3ccc(F)c(Cl)c3)c2cc1OC` [Example 55, 6-methoxy-7-pentyloxy-4-(3-chloro-4-fluoroanilino)benzo[d][1,2,3]triazine]: the “Kinase inhibition rate (VEGFR-2)” value on VEGFR-2 is listed as −0.53. Also, the IC50 in assay [1] was determined as 14.8 µM. On to `CCCCCOc1cc2nnnc(Nc3ccc(Cl)c(Cl)c3)c2cc1OC` [Example 48, 6-methoxy-7-pentyloxy-4-(3,4-dichloroanilino)-benzo[d][1,2,3]triazine], for which the “Kinase inhibition rate (VEGFR-2)” value at VEGFR-2 is on record as −21.65. In addition, in assay [1], the IC50 amounted to 16.9 µM. As for `CCCCCOc1cc2nnnc(Nc3ccc(Cl)cc3)c2cc1OC` [Example 49, 6-methoxy-7-pentyloxy-4-(4-chloroanilino)-benzo[d][1,2,3]triazine], the IC50 in assay [1] was 25.3 µM. Regarding `Fc1ccccc1Nc1nnnc2ccc(Cl)nc12` [Example 91, 6-chloro-4-(2-fluoroanilino)pyrido[3,2-d][1,2,3]triazine], the “Rat Aortic Ring Assay (10 ug/ml)” value in the assay on Rat aortic ring was “No significant inhibition”. Besides, in assay [1], the IC50 worked out at 10.8 µM. Take `COc1cc2c(Nc3cccc(OC(F)(F)F)c3)nnnc2cc1OCCCCl` [Example 69, 6-methoxy-7-chloropropoxy-4-(3-trifluoromethoxyanilino)-benzo[d][1,2,3]triazine]: the “Kinase inhibition rate (VEGFR-2)” value at VEGFR-2 is given as −14.75. For the same compound, the IC50 in assay [1] came to 24.9 µM.
